# Data published in patent publication US10597388B2, “Pyridazinone herbicides” (FMC CORPORATION, priority 2014, dated 2020).
# Assays:
# Type in all cases: in vivo
# [1] = test system: bluegrass (annual bluegrass, Poa annua); assay: Test D controlled growth environment herbicide test, pre- and postemergence
# Outline: (§1)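 Species sown in silt loam and sprayed preemergence, or grown in peat-based medium to 2–18 cm (1- to 4-leaf stage) and sprayed postemergence, with compounds in non-phytotoxic solvent plus surfactant. Visual injury scored versus controls after 14–21 d in a controlled environment, 0 (no effect) to 100 (complete control).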
# [2] = test system: bromegrass, downy (downy bromegrass, Bromus tectorum); assay: as above
# Outline: as §1
# [3] = test system: ryegrass, Italian (Italian ryegrass, Lolium multiflorum); assay: as above
# Outline: as §1
# [4] = test system: speedwell (bird's-eye speedwell, Veronica persica); assay: as above
# Outline: as §1
# [5] = test system: corn (Zea mays); assay: Test E greenhouse herbicide test, pre- and postemergence
# Outline: (§2)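 Compounds in surfactant-containing solvent are applied to soil right after sowing (silt loam) and, in parallel, to 1- to 4-leaf plants in a peat-based medium. Weed control is scored visually on a 0 (none) to 100 (complete) scale at 14 to 21 d.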
# [6] = test system: crabgrass, Brazilian (Brazilian crabgrass, Digitaria horizontalis); assay: as above
# Outline: as §2
# [7] = test system: soybean (Glycine max); assay: as above
# Outline: as §2
# [8] = test system: waterhemp (common waterhemp, Amaranthus rudis); assay: as above
# Outline: as §2
# [9] = Postemergence, 31 g ai/ha, scale 0 to 100 (0 no effect, 100 complete control)
# [10] = Postemergence, 125 g ai/ha, visual rating on scale 0 (no effect) to 100 (complete control), 14 to 21 d
# [11] = Postemergence, 250 g ai/ha, scale 0 to 100 (0 no effect, 100 complete control)
# [12] = Preemergence, 62 g ai/ha, scale 0 to 100 (0 no effect, 100 complete control)
# [13] = Preemergence, 125 g ai/ha, scale 0 to 100 (0 no effect, 100 complete control)
# [14] = Preemergence, 250 g ai/ha, scale 0 to 100, 0 no effect, 100 complete control
# [15] = postemergence, 62 g ai/ha, scale 0 to 100, 0 no effect, 100 complete control
# [16] = 62 g ai/ha, Postemergence, scale 0 to 100 (0 no effect, 100 complete control)
# [17] = 62 g ai/ha, Preemergence, scale 0 to 100 (0 no effect, 100 complete control)
# [18] = 125 g ai/ha, Postemergence, scale 0 to 100 (0 no effect, 100 complete control)
# [19] = 250 g ai/ha, Postemergence, scale 0 to 100 (0 no effect, 100 complete control)
# [20] = Postemergence, 16 g ai/ha, visual, scale 0 no effect to 100 complete control
# [21] = Postemergence, 31 g ai/ha, visual, scale 0 no effect to 100 complete control
# [22] = Preemergence, 16 g ai/ha, scale 0 to 100, 0 no effect, 100 complete control
# [23] = Preemergence, 31 g ai/ha, scale 0 to 100, 0 no effect, 100 complete control
# [24] = Preemergence, 125 g ai/ha, visual, scale 0 no effect to 100 complete control
# [25] = Preemergence, 250 g ai/ha, visual, scale 0 no effect to 100 complete control
# [26] = 125 g ai/ha, Preemergence, scale 0 to 100 (0 no effect, 100 complete control)
compound,measurement,setting,value
"Cc1cc(C)c2sc(C)c(-c3c(O)c(C)nn(C)c3=O)c2c1 [Compound 2, 5-hydroxy-2,6-dimethyl-4-(2,5,7-trimethylbenzo[b]thien-3-yl)-3(2H)-pyridazinone]",Bluegrass plant response rating,[1]; [9],5
same,"Plant response rating, Bluegrass",[1]; [10],5
same,"Plant response rating, Bluegrass",[1]; [11],15
same,"Plant response rating (scale of 0 to 100), Bluegrass","[1]; Preemergence, 31 g ai/ha",0
same,"Plant response rating, Bluegrass",[1]; [12],15
same,"Plant response rating, Bluegrass",[1]; [13],30
same,Bluegrass plant response rating,[1]; [14],50
same,"Plant response rating, Bluegrass",[1]; [15],10
same,"Bromegrass, Downy plant response rating",[2]; [9],10
same,"Plant response rating, Bromegrass, Downy",[2]; [10],10
same,"Plant response rating, Bromegrass, Downy",[2]; [11],20
same,"Plant response rating (scale of 0 to 100), Bromegrass, Downy","[2]; Preemergence, 31 g ai/ha",10
same,"Plant response rating, Bromegrass, Downy",[2]; [12],50
same,"Plant response rating, Bromegrass, Downy",[2]; [13],65
same,"Plant response rating, Bromegrass, Downy",[2]; [14],70
same,"Plant response rating, Bromegrass, Downy",[2]; [15],10
same,"Ryegrass, Italian plant response rating",[3]; [9],70
same,"Plant response rating, Ryegrass, Italian",[3]; [10],85
same,"Plant response rating, Ryegrass, Italian",[3]; [11],90
same,"Plant response rating (scale of 0 to 100), Ryegrass, Italian","[3]; Preemergence, 31 g ai/ha",85
same,"Plant response rating, Ryegrass, Italian",[3]; [12],95
same,"Plant response rating, Ryegrass, Italian",[3]; [13],100
same,"Plant response rating, Ryegrass, Italian",[3]; [14],100
same,"Plant response rating, Ryegrass, Italian",[3]; [15],80
same,Speedwell plant response rating,[4]; [9],50
same,"Plant response rating, Speedwell",[4]; [10],80
same,"Plant response rating, Speedwell",[4]; [11],90
same,"Plant response rating (scale of 0 to 100), Speedwell","[4]; Preemergence, 31 g ai/ha",55
same,"Plant response rating, Speedwell",[4]; [13],90
same,"Plant response rating, Speedwell",[4]; [14],100
same,"Plant response rating, Speedwell",[4]; [15],65
same,"Plant response rating, Corn",[5]; [16],0
same,"Plant response rating, Corn",[5]; [17],0
same,"Plant response rating, Corn",[5]; [18],5
same,"Plant response rating, Corn",[5]; [19],5
same,"Plant response rating, Corn",[5]; [20],0
same,"Plant response rating, Corn",[5]; [21],0
same,"Plant response rating, Corn",[5]; [22],0
same,"Plant response rating, Corn",[5]; [23],0
same,"Plant response rating, Corn",[5]; [24],0
same,"Plant response rating, Corn",[5]; [25],0
same,"Plant response rating, Crabgrass, Brazil",[6]; [16],0
same,"Plant response rating, Crabgrass, Brazil",[6]; [17],60
same,"Plant response rating, Crabgrass, Brazil",[6]; [18],10
same,"Plant response rating, Crabgrass, Brazil",[6]; [19],15
same,"Plant response rating, Crabgrass, Brazil",[6]; [20],0
same,"Plant response rating, Crabgrass, Brazil",[6]; [21],10
same,"Plant response rating, Crabgrass, Brazil",[6]; [22],0
same,"Plant response rating, Crabgrass, Brazil",[6]; [23],35
same,"Plant response rating, Crabgrass, Brazil",[6]; [24],50
same,"Plant response rating, Crabgrass, Brazil",[6]; [25],100
same,"Plant response rating, Soybean",[7]; [16],0
same,"Plant response rating, Soybean",[7]; [17],0
same,"Plant response rating, Soybean",[7]; [18],0
same,"Plant response rating, Soybean",[7]; [26],15
same,"Plant response rating, Soybean",[7]; [19],0
same,"Plant response rating, Soybean",[7]; [20],0
same,"Plant response rating, Soybean",[7]; [21],0
same,"Plant response rating, Soybean",[7]; [22],0
same,"Plant response rating, Soybean",[7]; [23],0
same,"Plant response rating, Soybean",[7]; [25],40
same,"Plant response rating, Waterhemp",[8]; [16],75
same,"Plant response rating, Waterhemp",[8]; [17],80
same,"Plant response rating, Waterhemp",[8]; [18],75
same,"Plant response rating, Waterhemp",[8]; [26],85
same,"Plant response rating, Waterhemp",[8]; [19],90
same,"Plant response rating, Waterhemp",[8]; [20],70
same,"Plant response rating, Waterhemp",[8]; [21],70
same,"Plant response rating, Waterhemp",[8]; [22],65
same,"Plant response rating, Waterhemp",[8]; [23],65
same,"Plant response rating, Waterhemp",[8]; [25],98
